Experiments:
Assay type in all cases: cell-based
[1] = test system: Chrysosporium keratinophilum; test: Agar plate disc-diffusion, antifungal activity
Protocol: (§1) The agar plate disc-diffusion method was applied. […] The discs were then placed onto the surface of agar plates (nutrient agar for bacteria and Sabouraud's dextrose agar for fungi) seeded with the test organism. Each plate contained 15 mL of the agar medium, previously seeded with 0.2 mL of the broth culture of each organism pregrown for 18 hours. The plates were incubated at 37 °C for 48 h, and 72 h for fungi. The inhibition zones were measured in mm. Discs impregnated with DMSO were used as a control, and its inhibition zone was subtracted from the tested compound actual inhibition zone.

Aspergillus flavus = test: Agar plate disc-diffusion, antifungal activity
Protocol: as §1

Pseudomonas aeruginosa = test: Agar plate disc-diffusion, antibacterial activity
Protocol: as §1

Escherichia coli = test: Agar plate disc-diffusion, antibacterial activity
Protocol: as §1

Bacillus cereus = test: Agar plate disc-diffusion, antibacterial activity
Protocol: as §1

Staphylococcus aureus = test: Agar plate disc-diffusion, antibacterial activity
Protocol: as §1

different microbes = test: Antimicrobial activity, overall statement; conditions: against different microbes (bacteria and fungi of Tables 1 and 2)
Protocol: The agar plate disc-diffusion method was applied. Sterilized filter papers (6 mm in diameter) were wetted with 10 μL of a solution of 4,5-bis(4-chlorophenyl)-2-phenyl-1H-imidazole (IV) to be tested, containing 10 mg/mL in DMSO, and the discs were allowed to air dry. The discs were then placed onto the surface of agar plates (nutrient agar for bacteria and Sabouraud's dextrose agar for fungi) seeded with the test organism. Each plate contained 15 mL of the agar medium, previously seeded with 0.2 mL of the broth culture of each organism pregrown for 18 hours. The plates were incubated at 37 °C for 48 h, and 72 h for fungi. The inhibition zones were measured in mm. Discs impregnated with DMSO were used as a control, and its inhibition zone was subtracted from the tested compound actual inhibition zone.

[2] = A = concentration of comp. = 10,000 μL
[3] = B = concentration of comp. = 30,000 μL
[4] = C = concentration of comp. = 50,000 μL

Question: What does the source list for `Clc1ccc(-c2nc(-c3ccccc3)[nH]c2-c2ccc(Cl)cc2)cc1` [IV, 4,5-bis(4-chlorophenyl)-2-phenyl-1H-imidazole]?
Answer: inhibition zone [1, 2]: 26 mm; inhibition zone [1, 3]: 28 mm; inhibition zone [1, 4]: 46 mm; inhibition zone (Aspergillus flavus; [2]): 22 mm; inhibition zone (Aspergillus flavus; [3]): 25 mm; inhibition zone (Aspergillus flavus; [4]): 32 mm; inhibition zone (Pseudomonas aeruginosa; [2]): 25 mm; inhibition zone (Pseudomonas aeruginosa; [3]): 28 mm; inhibition zone (Pseudomonas aeruginosa; [4]): 46 mm; inhibition zone (Escherichia coli; [2]): 27 mm; inhibition zone (Escherichia coli; [3]): 34 mm; inhibition zone (Escherichia coli; [4]): 52 mm; inhibition zone (Bacillus cereus; [2]): 22 mm; inhibition zone (Bacillus cereus; [3]): 24 mm; inhibition zone (Bacillus cereus; [4]): 36 mm; inhibition zone (Staphylococcus aureus; [2]): 20 mm; inhibition zone (Staphylococcus aureus; [3]): 24 mm; inhibition zone (Staphylococcus aureus; [4]): 33 mm; antimicrobial activities (different microbes): excellent antimicrobial activities

— patent publication US11999701B1, “4,5-bis(4-chlorophenyl)-2-phenyl-1H-imidazol-1-yl as an antimicrobial compound” (KING FAISAL UNIVERSITY, priority 2023, dated 2024)
